Assay results: paper PMC5564600 (Oncotarget, 2017)

How the values were obtained:
Experiment in all cases: biochemical
Assay type in all cases: binding
[1] = target: T1, panel of 442 kinases (Homo sapiens, UniProt Q32MK0); conditions: kinase MLCK; for remaining activity at 1 µM: read-out: % of control at 1 µM
T1 construct: purchased Ambit Biosciences (scanMAXX KINOMEscan)
T1 sequence (Q32MK0 1-819): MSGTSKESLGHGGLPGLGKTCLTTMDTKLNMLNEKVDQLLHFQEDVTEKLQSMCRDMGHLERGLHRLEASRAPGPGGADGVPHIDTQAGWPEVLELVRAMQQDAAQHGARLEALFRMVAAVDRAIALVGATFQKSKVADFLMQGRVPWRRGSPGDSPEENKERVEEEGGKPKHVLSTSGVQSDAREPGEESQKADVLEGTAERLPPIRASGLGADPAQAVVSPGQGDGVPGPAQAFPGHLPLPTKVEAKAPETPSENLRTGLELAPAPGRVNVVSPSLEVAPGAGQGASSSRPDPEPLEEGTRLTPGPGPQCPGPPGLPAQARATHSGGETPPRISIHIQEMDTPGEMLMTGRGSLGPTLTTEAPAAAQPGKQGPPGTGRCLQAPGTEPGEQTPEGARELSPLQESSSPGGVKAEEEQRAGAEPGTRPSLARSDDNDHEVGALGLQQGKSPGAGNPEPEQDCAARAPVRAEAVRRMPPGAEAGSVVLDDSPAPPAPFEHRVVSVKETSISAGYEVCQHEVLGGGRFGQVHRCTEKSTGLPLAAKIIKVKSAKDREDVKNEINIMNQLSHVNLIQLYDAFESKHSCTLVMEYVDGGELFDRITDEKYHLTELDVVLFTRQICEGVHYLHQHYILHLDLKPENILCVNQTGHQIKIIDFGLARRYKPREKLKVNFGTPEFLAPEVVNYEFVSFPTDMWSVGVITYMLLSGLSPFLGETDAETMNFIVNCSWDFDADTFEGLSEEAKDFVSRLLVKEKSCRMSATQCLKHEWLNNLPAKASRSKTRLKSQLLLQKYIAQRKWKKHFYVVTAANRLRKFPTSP

[2] = target: T2, panel of 442 kinases (Homo sapiens, UniProt P00533, L858R); conditions: EGFR(L858R); for remaining activity at 1 µM: read-out: % of control at 1 µM
T2 construct: purchased Ambit Biosciences (scanMAXX KINOMEscan)

[3] = target: T3, panel of 442 kinases (Homo sapiens, UniProt P31749); conditions: AKT1; for remaining activity at 1 µM: read-out: % of control at 1 µM
T3 construct: purchased Ambit Biosciences (scanMAXX KINOMEscan)

[4] = target: T4, panel of 442 kinases (Homo sapiens, UniProt O00329); conditions: kinase PIK3CD; 1 µM; read-out: % of control at 1 µM
T4 construct: purchased Ambit Biosciences (scanMAXX KINOMEscan)
T4 sequence (O00329 1-1044): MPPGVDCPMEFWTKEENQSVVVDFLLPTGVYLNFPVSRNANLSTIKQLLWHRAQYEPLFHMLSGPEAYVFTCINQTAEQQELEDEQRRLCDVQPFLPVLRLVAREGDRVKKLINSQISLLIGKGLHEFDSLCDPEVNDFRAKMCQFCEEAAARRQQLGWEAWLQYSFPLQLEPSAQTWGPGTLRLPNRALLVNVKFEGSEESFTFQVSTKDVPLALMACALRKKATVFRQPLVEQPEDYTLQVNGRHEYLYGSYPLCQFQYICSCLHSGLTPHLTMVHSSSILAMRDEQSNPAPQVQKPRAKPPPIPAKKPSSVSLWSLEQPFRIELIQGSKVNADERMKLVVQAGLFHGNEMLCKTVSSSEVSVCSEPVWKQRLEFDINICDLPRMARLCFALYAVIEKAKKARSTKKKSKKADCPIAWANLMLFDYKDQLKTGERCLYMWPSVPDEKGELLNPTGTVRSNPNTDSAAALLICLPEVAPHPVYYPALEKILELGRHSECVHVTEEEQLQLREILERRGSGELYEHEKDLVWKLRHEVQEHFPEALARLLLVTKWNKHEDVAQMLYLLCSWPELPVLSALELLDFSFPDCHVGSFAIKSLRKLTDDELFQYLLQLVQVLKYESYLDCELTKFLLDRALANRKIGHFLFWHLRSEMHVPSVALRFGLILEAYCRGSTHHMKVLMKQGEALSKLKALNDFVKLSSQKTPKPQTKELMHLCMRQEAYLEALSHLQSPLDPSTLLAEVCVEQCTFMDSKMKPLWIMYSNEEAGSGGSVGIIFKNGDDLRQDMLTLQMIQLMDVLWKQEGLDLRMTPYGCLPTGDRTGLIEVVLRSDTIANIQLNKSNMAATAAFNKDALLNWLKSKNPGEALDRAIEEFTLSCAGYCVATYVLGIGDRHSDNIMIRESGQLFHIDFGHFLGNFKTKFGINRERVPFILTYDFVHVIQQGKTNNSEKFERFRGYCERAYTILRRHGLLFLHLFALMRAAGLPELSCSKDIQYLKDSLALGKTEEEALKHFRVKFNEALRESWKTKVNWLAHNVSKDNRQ

[5] = 10 µM, read-out: % of control at 10 µM

T3 sequence (P31749 whole entry): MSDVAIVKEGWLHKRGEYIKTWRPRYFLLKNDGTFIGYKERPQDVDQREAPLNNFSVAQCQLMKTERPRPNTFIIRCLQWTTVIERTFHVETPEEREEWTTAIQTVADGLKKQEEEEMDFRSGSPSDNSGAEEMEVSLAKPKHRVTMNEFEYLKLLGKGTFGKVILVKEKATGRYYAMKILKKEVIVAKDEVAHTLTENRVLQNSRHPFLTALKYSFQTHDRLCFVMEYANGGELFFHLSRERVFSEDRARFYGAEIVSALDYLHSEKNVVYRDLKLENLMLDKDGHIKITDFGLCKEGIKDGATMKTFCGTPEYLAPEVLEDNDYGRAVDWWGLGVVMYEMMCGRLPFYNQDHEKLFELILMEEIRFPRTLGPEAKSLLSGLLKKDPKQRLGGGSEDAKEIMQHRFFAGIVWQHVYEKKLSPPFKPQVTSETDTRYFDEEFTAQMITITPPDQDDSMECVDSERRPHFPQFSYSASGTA
T2 sequence (P00533 25-1210 L858R): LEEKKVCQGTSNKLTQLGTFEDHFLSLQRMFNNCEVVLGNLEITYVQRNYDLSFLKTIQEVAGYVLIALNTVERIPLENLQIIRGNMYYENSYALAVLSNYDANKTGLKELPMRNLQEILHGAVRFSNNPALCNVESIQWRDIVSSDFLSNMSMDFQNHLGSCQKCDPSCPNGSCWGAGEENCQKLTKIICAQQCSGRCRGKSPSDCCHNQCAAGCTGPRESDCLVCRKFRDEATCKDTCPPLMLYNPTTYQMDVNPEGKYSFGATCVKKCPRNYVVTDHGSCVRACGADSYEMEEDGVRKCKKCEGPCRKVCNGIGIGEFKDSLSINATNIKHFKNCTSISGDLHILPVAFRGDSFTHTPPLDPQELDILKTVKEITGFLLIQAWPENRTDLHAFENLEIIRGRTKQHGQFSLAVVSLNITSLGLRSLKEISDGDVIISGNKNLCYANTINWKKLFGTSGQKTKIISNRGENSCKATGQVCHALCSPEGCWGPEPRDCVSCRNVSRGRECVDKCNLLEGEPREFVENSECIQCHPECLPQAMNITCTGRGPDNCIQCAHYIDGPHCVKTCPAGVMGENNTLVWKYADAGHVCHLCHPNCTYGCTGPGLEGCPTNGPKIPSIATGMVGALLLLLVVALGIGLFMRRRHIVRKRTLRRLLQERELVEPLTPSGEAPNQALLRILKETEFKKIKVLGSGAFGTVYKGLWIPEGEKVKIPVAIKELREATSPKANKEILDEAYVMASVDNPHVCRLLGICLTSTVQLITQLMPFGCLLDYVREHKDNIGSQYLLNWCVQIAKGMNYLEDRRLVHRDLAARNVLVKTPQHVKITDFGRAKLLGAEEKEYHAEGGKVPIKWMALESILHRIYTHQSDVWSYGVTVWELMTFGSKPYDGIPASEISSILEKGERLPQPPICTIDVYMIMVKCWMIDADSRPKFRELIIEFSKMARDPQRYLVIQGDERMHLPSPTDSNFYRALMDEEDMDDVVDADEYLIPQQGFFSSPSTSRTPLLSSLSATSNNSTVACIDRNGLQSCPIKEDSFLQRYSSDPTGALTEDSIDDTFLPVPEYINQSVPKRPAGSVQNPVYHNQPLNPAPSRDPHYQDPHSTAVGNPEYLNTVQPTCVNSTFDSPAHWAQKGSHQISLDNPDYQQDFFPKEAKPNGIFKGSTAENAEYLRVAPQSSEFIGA

Compound	remaining activity at 1 µM [1] [%]	remaining activity at 10 µM [1, 5] [%]	remaining activity at 1 µM [2] [%]	remaining activity at 10 µM [2, 5] [%]	remaining activity at 1 µM [3] [%]	remaining activity at 10 µM [3, 5] [%]	remaining activity at 1 µM [4] [%]
Nc1cc(C(F)(F)F)c(-c2cc(N3CCOCC3)nc(N3CCOCC3)n2)cn1 [Buparlisib]	100	100	100	100	94	100	–
COc1ncc(-c2ccc3nccc(-c4ccnnc4)c3c2)cc1NS(=O)(=O)c1ccc(F)cc1F [Omipalisib]	100	–	83	–	59	–	0
FC(F)c1nc2ccccc2n1-c1nc(N2CCOCC2)nc(N2CCOCC2)n1 [ZSTK474, 2-(difluoromethyl)-1-[4,6-di(4-morpholinyl)-1,3,5-triazin-2-yl]-1H-benzimidazole]	92	–	100	–	100	–	0
Cn1c(=O)n(-c2ccc(C(C)(C)C#N)cc2)c2c3cc(-c4cnc5ccccc5c4)ccc3ncc21 [Dactolisib, 2-methyl-2-[4-(3-methyl-2-oxo-8-quinolin-3-yl-2,3-dihydroimidazo[4,5-c]quinolin-1-yl)-phenyl] propionitrile]	80	–	–	–	100	–	12
